“And” between values parts separate entries of the source, which are not always exact repeats. Equal values may be shown once. No end group written: not given here.
Assays:
Lewis rats = details: rat, in vivo, sc
Protocol: Cardiac constructs were made by encapsulation of neonatal Lewis rat cardiomyocytes in Az-chitosan-QHREDGS or Az-chitosan-RGDS. A total of 2×10^6 cardiomyocytes were resuspended in 15 μL of ice cold cardiomyocytes medium with 30% FBS for at least 10 min. These cells were then encapsulated in 100 μL of the hydrogel in transwell plates and constructs (2 mm thick and 6 mm in diameter) were produced. A total of 8 samples were made for each type of hydrogel, and 4 from each group were implanted, while the other 4 were retained as in vitro controls. Samples were cultured at 37° C. for 5 d before they were implanted in vivo.
Cardiac constructs described above were inserted subcutaneously into the abdomen of Lewis rats. Four samples were implanted for each type of hydrogel. […] Quantification of total SMA and Factor VIII was performed using ImageScope v10 (Aperio Technologies) and mean intensities were averaged for six fields for each sample and normalized to total area. […] Apoptosis was assessed using a TUNEL assay (Roche Applied Science) following the manufacturer's standard protocol.

[1] = test system: neonatal cardiomyocytes encapsulated in chitosan hydrogels; assay: Functional testing by electrical field stimulation (ET, MCR) of encapsulated cardiomyocytes; format: cell-based, rat
From the text: The electrical function of in vitro samples of neonatal cardiomyocytes encapsulated in chitosan hydrogels for 6 d was established by measuring excitation threshold (ET), the minimum voltage required to pace the encapsulated cells simultaneously, and maximum capture rate (MCR) as previously described, (Radisic, Park et al. 2004), the contents of which are incorporated by reference. The MCR is the maximum stimulation rate at which the encapsulated cardiomyocytes can be induced to beat simultaneously, the encapsulated samples were placed between a pair of carbon electrodes immersed in warm Tyrode solution (Sigma, pH 7.4). The ET was measured by stimulating the samples with square pulses of 2 ms width at a frequency of 1 Hz and increasing the output voltage of the stimulator until ˜90% of the cells in the field-of-view were beating synchronously with the stimulator output. The MCR was measured by setting the output at 15 V, and increasing the frequency until most of the cells in the sample were no longer synchronously beating with the driving signal. All measurements were taken using bright field microscopy. The samples were placed in an environmental chamber at 37° C. for the measurements (N=3/group).

human iPS cells 0901B = assay: Pluripotency markers Oct4 and SSEA4 by FACS; format: cell-based; details: 50 μM, five passages, FIG. 15
Protocol: (§1) Analytical flow cytometry was performed on a FACSCalibur flow cytometer (BD Biosciences) as described in Chiang et al. Acta Biomater. 6, 1904-1916 (2010), with an additional permeabilization step with 0.25% Triton-X (Sigma) for 10 min at 4° C. Oct4 (Millipore), SSEA-4 (Developmental Studies Hybridoma Bank) and Ki67 (Millipore) and all secondary antibodies (Jackson ImmunoResearch) were used at 1:100.

human iPS cells BJ1D [2] = assay: Pluripotency markers Oct4 and SSEA4 by FACS; format: cell-based; details: 50 μM, five passages, FIG. 14
Protocol: as §1

human iPS cells BJ1D [3] = assay: iPS cell dose-response, CFDA-Live/PI-Dead live cell count; format: cell-based; details: 50 μM soluble peptide, passage 5, vs PBS, p=0.028, FIG. 10
Protocol: The human iPS cells (BJ1D and 0901B) were obtained from the Ontario iPSC Facility and used following the hiPS cell research guidelines of the University of Toronto as described by Hotta et al. Nat. Protoc. 4, 1828-1844 (2009)), unless specified otherwise. Cells were cultured on a feeder layer of MEF cells (Mount Sinai Hospital Toronto, inactivated with 10 μg/ml mitomycin C and seeded at 1.8×10^5 per 3.5 cm dish). For single cell cultures, hiPS cell colonies were dissociated in 0.25% Trypsin-EDTA (Invitrogen) for 5 min, followed by trituration with a pipette. To ensure a single-cell suspension, the dissociated cells were passed through a 40 μm cell strainer (BD Falcon) and seeded onto MEF plates at 10 cells/ml, 10 cm plates. Cells were allowed to grow for 7 days and the total number of colonies was counted. […] Cells were analyzed after 5 passages in continuous treatment with 50 μM QHREDGS, 50 μM DGQESHR, or PBS, unless specified otherwise.
Human iPS cells were treated for 5 passages and stained for CFDA-Live/PI-Dead as described in Rask et al. J. Biomed. […] Live cells were counted using the cell counter plug in for ImageJ Immunohistochemistry was performed as described above (Rask et al., ibid). […]
To determine the optimal concentration of QHREDGS for iPSC expansion, a dose-response experiment was performed. […] Live cells were counted using the cell counter plug in for ImageJ.

human iPS cells = assay: Teratoma formation after grafting into hind-limb muscles of NOD-SCID mice; format: in vivo; details: 10 passages in 50 μM, grafted into NOD-SCID mice
[4] = test system: Human ESC-derived cardiac cells (Hes2); assay: Total cell number of monolayer human ESC-derived cardiac cells; format: cell-based; details: 50 μM, 10 days, vs PBS control and DGQESHR
Protocol: Human ESC-derived cardiac cell culture, were derived from Day 20 EBs, consisting of greater than 50% cardiomyocytes obtained by directed differentiation of human ES (Hes2) cells as described by Yang et al. (Nature 453, 524-528 (2008)). EBs were dissociated using Collagenase I (Invitrogen) for 2 hrs and 0.05% Trypsin-EDTA (Invitrogen) for 5 min and plated at 40000 cells/cm^2 onto 0.2% gelatin-coated plates in Stempro 34 medium supplemented with VEGF (10 ng/ml) and DKK1 (150 ng/ml). Cells were cultured in the presence of 50 μM QHREDGS, 50 μM DGQESHR (Biomatik) or PBS until they formed a beating monolayer, around 10 days. Peptides were replenished during media changes every 3 days. 100 μM H2O2 (Sigma, dissolved in PBS) was added to culture media for 10 min, washed, and analyzed immediately for CFDA-Live/PI-Dead. Live cells were counted using the cell counter plug in for ImageJ. 0.5 μM or 2.5 μM taxol (Sigma, dissolved in DMSO) was added to culture media for 24 hrs, and the extent of apoptosis was analyzed immediately using the Apo-ONE Homogeneous Caspase Assay (Promega), or TUNEL assay (Roche) as described above. A PBS control was used for H2O2 and DMSO control was used for taxol.

Row | Substance | animal health / external signs of inflammation (Lewis rats) | ET (excitation threshold) ([1]; after six days of cultivation) | MCR (maximum capture rate) ([1]; after six days of cultivation) [pps] | cardiomyocyte contraction under electrical field stimulation ([1]; end of cultivation period) | expression of Oct4 and SSEA4 (FACS) (human iPS cells 0901B) | expression of Oct4 and SSEA4 (FACS) (human iPS cells BJ1D [2]) | number of viable human iPS cells (human iPS cells BJ1D [3]) | teratoma formation (human iPS cells) | increase in number of cardiac cells/well [4]
1 | Az-chitosan-QHREDGS: QHREDGS peptide covalently conjugated to Az-chitosan by EDC chemistry (also: covalently conjugated to Az-chitosan by EDC chemistry, site not given here) | no external signs of inflammation | 7.0 ± 0.4; V and 9.2 ± 0.6 V | 4.3 ± 0.1 | beat synchronously | – | – | – | – | –
2 | QHREDGS (angiopoietin 1 peptide) | – | – | – | – | comparable to both PBS and DGQESHR scrambled peptide controls | comparable to both PBS and DGQESHR scrambled peptide controls | significant increase | continued to form teratomas | greater than 2 fold

Source: patent US9096643B2, “Cell-protective peptides and uses thereof” (priority 2010, dated 2015)
